# Assay results: patent US20040009197A1 (priority 2000, published 2004)
# Several values for one entry are separate records, joined by “and”; a condition that tells them apart may be missing. Identical values can stand only once. Like-named read-outs stand apart in the source and are kept apart here.
# Experiment: UV spectrum: absorption maxima, molar extinction coefficient and K value
# Format: physicochemical
# Settings: for εM: in M-1·cm-1 (unit assumed); for UV absorption peaks: does not depend on the solvent nature and pH values
molecule,measurement,setting,value
"3,4,5-trihydroxystilbene [Resveratrol]",εM,at 216 nm,"19,836"
same,εM,at 305 nm,"28,044"
same,εM,at 309 nm,"27,816"
same,UV absorption peaks,,216 nm and 305 nm and 309 nm
same,UV absorption peaks,listed as resveratrol,305 nm and 309 nm
"Cc1ccc(C=C2C(=O)C3(C)CCC2C3(C)C)cc1 (stereo not shown) [3-(4-methylbenzylidene)-camphor, 3-(4-methylbenzylidene)-bornan-2-one]",Max ads.,Solvent system Ethanol,300
"CC(C)c1ccc(C(=O)CC(=O)c2ccccc2)cc1 [4-isopropyl dibenzoyl methane, 1-p-cumenyl-3-phenylpropane-1,3-dione]",Max ads.,Solvent system Ethanol,345
"COc1ccc(C(=O)CC(=O)c2ccc(C(C)(C)C)cc2)cc1 [Butyl methoxy dibenzoyl methane, 4-t-butyl-4′-methoxydibenzoyl methane]",Max ads.,Solvent system Ethanol,358
"CCOC(=O)c1ccc(N(CC(C)O)CC(C)O)cc1 (stereo not shown) [Ethyl dihydroxypropyl PABA, Ethyl-4-bis(2-hydroxypropyl)amino benzoic acid]",K value,,119
same,Max ads.,,311
same,εM (Molar extinction coefficient),,"27,000"
"Nc1ccc(C(=O)OCC(O)CO)cc1 (stereo not shown) [Glyceryl PABA, 1,2,3-propanetriol,]",Max ads.,Solvent system Ethanol,297
"CC1CC(OC(=O)c2ccccc2O)CC(C)(C)C1 (stereo not shown) [Homosalate, 3,3,5-trimethyl cyclohexyl-2-h drox benzoate]",Max ads.,Solvent system Ethanol,306
"O=S(=O)(O)c1ccc2nc(-c3ccccc3)[nH]c2c1 [Novantisol, 2-phenyl-benzimidazole-5-sulphonic acid]",Max ads.,"0,1 N NaOH",305
"CCCCC(CC)COC(=O)c1ccc(N(C)C)cc1 (stereo not shown) [Octyl dimethyl PABA, 2-ethylbexyl p-dimethylaminobenzoate]",Max ads.,Solvent system Ethanol,311
"CCCCC(CC)COC(=O)C=Cc1ccc(OC)cc1 (stereo not shown) [Octyl methoxycinnamate, 2-ethylhexyl-p-methoxycinnamate]",Max ads.,Solvent system Ethanol,311
"CCCCC(CC)COC(=O)c1ccccc1O (stereo not shown) [Octyl salicylate, 2-ethylhexyl salicylate]",Max ads.,Solvent system Ethanol,307
"Nc1ccc(C(=O)O)cc1 [PABA, 4-amino benzoic acid]",Max ads.,Solvent system Ethanol,283
Diethanolamine methoxy hydroxycinnamate [DEA methoxycinnamate],K value,,79
